Results from US5043179A, “Triol triester derivatives as low calorie fat mimetics” (Nabisco Brands, Inc., priority 1990, dated 1991).

How the values were obtained:
[1] = caloric availability by in vivo animal feeding study (body weight gain); parameters: species or system Sprague-Dawley rats; conditions: rats, diet of 50% fort and 21% test compound, 14 days
Excerpt: This example illustrates how the triol triesters of this invention are screened for caloric availability by a carefully controlled in vivo animal feeding study.
An experimental relationship between total calories ingested and animal body weight gain is established by monitoring the body weight gain associated with consumption of a nutritionally balanced diet containing varying concentrations of a reference substance such as corn oil which has a known caloric availability. Correlations between total calories ingested and body weight gain are excellent (r=0.99).
Caloric availability of an unknown substance is evaluated by substituting a specific weight of the unknown substance for the reference substance and observing the body weight gain. The gain in body weight is equated to a total number of calories using the correlation previously established for the reference data. The estimated number of calories ingested are divided by the weight of unknown substance to give the apparent calories per gram for the unknown substance. Generally speaking, in these bioavailability studies, the degree of perianal pelt soiling correlates with reduced bioavailability.
The test animals are six-week-old male Sprague-Dawley rats obtained from the Portage, Michigan facility of the Charles River Laboratories, Inc. After acclimation for 15 days, the test duration is 14 days. […]

[2] = in vitro digestibility screen using pancreatic lipase (TLC analysis); assay type: in vitro ADME, porcine; conditions: pig, two-hour incubation, 37° C., pH 7.1, TLC, read-out: hydrolyzed by pancreatic lipase
Protocol: This example outlines the procedure for screening the in vitro digestibility of the triester derivatives of this invention using pancreatic lipase.
(§1) 1. Buffer: A pH 7.1 phosphate buffer is prepared by dissolving 6.8 g. KH2 PO4 in 1 L. of millipore filtered water (to yield 0.05 M phosphate). Fifty mg. Ca(NO3)2 and 5.0 g. cholic acid (Na^+ salt, an ox bile isolate from Sigma) are added to give 0.3 mM Ca++ and 0.5% cholic acid in 0.05 M phosphate. The pH is adjusted to approximately 7.1 with solid NaOH. Several drops of Baker "Resi-analyzed " toluene are added to prevent bacterial growth during storage at 3°-5° C.
(§2) 2. Lipase: About 15 mg/mL commercial porcine pancreatic lipase from U.S. Biochemical Corporation is dissolved in buffer.
3. Substrates and Standards: A 1.0 mL volumetric flask is charged with an amount of lipid substrate (test substance or standard) calculated to give a concentration of 200 nanomoles per microliter in Baker "Resi-analyzed " toluene. (The proper concentration may be approximated by doubling the molecular weight of the lipid in question, dividing by 10, and diluting to the mark; this yields about 200 nanomoles per microliter.) This preparation affords the substrate to be used in the hydrolysis reactions. […]

[3] = lipase assay as in Example 7, with super fluid chromatography to separate hydrolysis products; assay type: in vitro ADME, porcine; conditions: pig, pancreatic lipase, pH 7.1, one hour incubation, read-out: hydrolyzed by pancreatic lipase
Protocol: as §1, §2
(§3) 3. Substrates and Standards: A 1.0 mL volumetric flask is charged with an amount of lipid substrate (test substance or standard) calculated to give a concentration of 200 nanomoles per microliter in Baker "Resi-analyzed " toluene. (The proper concentration may be approximated by doubling the molecular weight of the lipid in question, dividing by 10, and diluting to the mark; this yields about 200 nanomoles per microliter.) This preparation affords the substrate to be used in the hydrolysis reactions.
(§4) In a 25 mL Erlenmeyer, emulsify 20 mL buffer and 40 microliters of substrate using an ultrasonic disrupter at a microtip maximum setting for approximately 10 seconds. […] Place in a 37° C. water bath and stir vigorously. After temperature equilibration, add 40 microliters of enzyme solution and start timing. […]

[4] = cited from earlier work
[5] = system: nonspecific lipase; conditions: pancreatic lipase inhibited by taurocholate; cited from earlier work
[6] = fed to rats; cited from earlier work
[7] = system: pancreatic lipase; experiment: lipase assay as in Example 7, with super fluid chromatography to separate hydrolysis products; assay type: in vitro ADME, porcine; conditions: one hour incubation
Protocol: as §1, §2, §3, §4

Compound | hydrolysis by nonspecific lipase [5] | absorption in fat balance study [6] | other results
CCCCCCCC/C=C\CCCCCCCC(=O)OCCC(COC(=O)CCCCCCC/C=C\CCCCCCCC)OC(=O)CCCCCCC/C=C\CCCCCCCC (stereo not shown) [Example 4, 1,2,4-Butane trioleate] | – | – | caloric availability (kcal/gram yielded upon being metabolized) [1]: about 7.7 kcal/gram; metabolised at 2 h [2]: ~50%
CCCCCCCCCCCCCC(=O)OCCCCC(COC(=O)CCCCCCCCCCCCC)OC(=O)CCCCCCCCCCCCC (stereo not shown) [Example 5, 1,2,6-hexane trimyristate] | – | – | metabolised at 1 h [3]: ~20%
CCCCCCCC/C=C\CCCCCCCC(=O)OC[C@H](OC(=O)CCCCCCC/C=C\CCCCCCCC)[C@@H](COC(=O)CCCCCCC/C=C\CCCCCCCC)OC(=O)CCCCCCC/C=C\CCCCCCCC [erythritol tetraoleate] | stepwise hydrolysis | absorbability decreased | hydrolysis in vivo (free tagged erythritol in urine) ([4]; rats): hydrolyzed in vivo; rate of appearance of fatty acids in the lymph ([4]; thoracic duct cannulated rats): slower rate than glycerol trioleate
CCCCCCCC/C=C\CCCCCCCC(=O)OCCOC(=O)CCCCCCC/C=C\CCCCCCCC [ethylene glycol dioleate] | hydrolyze | absorbed | –
CCCCCCCC/C=C\CCCCCCCC(=O)OC [methyl oleate] | hydrolyze | absorbed | –
CCCCCCCC/C=C\CCCCCCCC(=O)OCC(COC(=O)CCCCCCC/C=C\CCCCCCCC)(COC(=O)CCCCCCC/C=C\CCCCCCCC)COC(=O)CCCCCCC/C=C\CCCCCCCC [pentaerythritol tetraoleate] | – | absorbability decreased | –
CCCCCCCC/C=C\CCCCCCCC(=O)OC[C@H](OC(=O)CCCCCCC/C=C\CCCCCCCC)[C@@H](OC(=O)CCCCCCC/C=C\CCCCCCCC)[C@H](OC(=O)CCCCCCC/C=C\CCCCCCCC)[C@@H](COC(=O)CCCCCCC/C=C\CCCCCCCC)OC(=O)CCCCCCC/C=C\CCCCCCCC [sorbitol hexaoleate] | – | not absorbed | –
CCCCCCCC/C=C\CCCCCCCC(=O)OC[C@H]1O[C@@](COC(=O)CCCCCCC/C=C\CCCCCCCC)(O[C@H]2O[C@H](COC(=O)CCCCCCC/C=C\CCCCCCCC)[C@@H](OC(=O)CCCCCCC/C=C\CCCCCCCC)[C@H](OC(=O)CCCCCCC/C=C\CCCCCCCC)[C@H]2OC(=O)CCCCCCC/C=C\CCCCCCCC)[C@@H](OC(=O)CCCCCCC/C=C\CCCCCCCC)[C@@H]1OC(=O)CCCCCCC/C=C\CCCCCCCC [sucrose octaoleate] | – | not absorbed | –
CCCCCCCCCCCCCC(=O)OCC(COC(=O)CCCCCCCCCCCCC)OC(=O)CCCCCCCCCCCCC [trimyristin] | – | – | hydrolysis by pancreatic lipase (in words) [7]: almost fully hydrolyzed
CCCCCCCC/C=C\CCCCCCCC(=O)OCC(COC(=O)CCCCCCC/C=C\CCCCCCCC)OC(=O)CCCCCCC/C=C\CCCCCCCC [triolein] | hydrolyze | absorbed | metabolised at 2 h [2]: ~90%
CCCCCCCC/C=C\CCCCCCCC(=O)OC[C@H](OC(=O)CCCCCCC/C=C\CCCCCCCC)[C@@H](OC(=O)CCCCCCC/C=C\CCCCCCCC)[C@@H](COC(=O)CCCCCCC/C=C\CCCCCCCC)OC(=O)CCCCCCC/C=C\CCCCCCCC [xylitol pentaoleate] | – | absorbability decreased | –
